Measurements published in publication PMC6257622, “Discovery and Structure–Activity-Relationship Study of N-Alkyl-5-hydroxypyrimidinone Carboxamides as Novel Antitubercular Agents Targeting Decaprenylphosphoryl-β-D-ribose 2′-Oxidase” (Journal of Medicinal Chemistry, 2018).
In brackets after ≈: the same amount, converted by molar mass. Several values for one entry are separate records, joined by “and”; a condition that tells them apart may be missing. Equal entries are not always repeated. Where two headings read alike, the source gives them in different places.

What was measured:
in vitro = assay type: cell-based; details: human; HepG2 cells in DMEM/10% FBS supplemented with glucose; read-out: Cytotoxicity (IC50) Glucose
HepG2 cells = assay: in vitro; assay type: cell-based
Mtb strain H37Rv = assay: MIC determination against Mtb H37Rv in different media; assay type: cell-based, Mycobacterium tuberculosis; details: for antitubercular activity (in words): SAR discussion
[1] = tested on: Mtb in J774 murine macrophages; assay: Intracellular killing assay in murine macrophage J774; details: 1–50-fold MIC, 4 or 7 days
Procedure: For the ex vivo efficacy test, J774 cells (5 × 10^5 cells/well) were seeded in flat-bottom 24-well plates (Corning Inc.) in DMEM GlutaMAX (Gibco/ThermoFisher Scientific) supplemented with 10% fetal-bovine serum, 20 mM HEPES, and 0.5 mM sodium pyruvate (hereafter abbreviated as DMEM/FBS). Cells were infected with Mtb (5 × 10^5 cells/well, MOI 1) for 24 h; this was followed by medium removal and washing (2×) with an equal volume of Dulbecco’s PBS. Infected cells were fed DMEM/FBS and exposed to test compounds at 1×, 10×, 20×, and 50× MIC in medium (500 μL/well). Cells were incubated at 37 °C with 95% humidity and 5% CO2 in an incubator for 7 days. The medium was changed every 4 days. After 4 and 7 days of incubation, 0.1% SDS was added to each well to lyse the J774 cells. After 5 min, the lysate was thoroughly mixed and diluted in 7H9/ADC, and appropriate dilutions were plated in duplicate on 7H11/OADC plates.

[2] = tested on: anaerobic nonreplicating Mtb cells; assay type: cell-based, Mycobacterium tuberculosis; details: 7 days exposure, 1–50× aerobic MIC, Wayne model
recA and radA reporters = assay type: cell-based, Mycobacterium tuberculosis
[3] = C57Bl/6 mice, oral, 10 mg/kg single dose
iniBAC promoter = assay type: cell-based, Mycobacterium tuberculosis
actively replicating Mtb = assay type: cell-based, Mycobacterium tuberculosis
Mtb cydC::aph strain = assay type: cell-based, Mycobacterium tuberculosis
[4] = HepG2 cells in DMEM/10% FBS with galactose (mitochondrial toxicity), read-out: Cytotoxicity (IC50) Galactose
[5] = Mycobacterium tuberculosis, H37RV, Mtb H37Rv in GAST (Table 2), read-out: MIC GAST
[6] = Mycobacterium tuberculosis, H37RV, supplementary CSV, read-out: MIC in 7H9/ADC
[7] = Mycobacterium tuberculosis, H37RV, supplementary CSV, read-out: MIC in GAST/Fe
[8] = Mycobacterium tuberculosis, H37RV, read-out: MIC 7H9/ADC
[9] = Mtb H37Rv in GAST (Table 2), read-out: MIC GAST
[10] = HepG2 cells in DMEM/10% FBS supplemented with glucose, read-out: Cytotoxicity (IC50) Glucose
[11] = supplementary CSV, read-out: MIC in 7H9/ADC
[12] = supplementary CSV, read-out: MIC in GAST/Fe

| Compound | IC50 (in vitro) [µM] | IC50 (HepG2 cells; [4]) [µM] | MIC (Mtb strain H37Rv; [5]) [µM] | MIC (Mtb strain H37Rv; [6]) [µM] | MIC (Mtb strain H37Rv; [7]) [µM] | MIC (Mtb strain H37Rv; [8]) [µM] | antitubercular activity (in words) (Mtb strain H37Rv) | also measured |
| --- | --- | --- | --- | --- | --- | --- | --- | --- |
| COc1c(C(=O)NCc2ccccc2)nc(Cc2ccccc2C(F)(F)F)n(C)c1=O [Compound P17, N-Benzyl-5-methoxy-1-methyl-6-oxo-2-(2-(trifluoromethyl)benzyl)-1,6-dihydropyrimidine-4-carboxamide] | > 100 | > 100 | > 100 | > 100 | > 100 | > 100 | inactive |  |
| Cn1c(Cc2ccccc2C(F)(F)F)nc(C(=O)NCc2ccccc2F)c(O)c1=O [Compound P09, N-(2-Fluorobenzyl)-5-hydroxy-1-methyl-6-oxo-2-(2-(trifluoromethyl)benzyl)-1,6-dihydropyrimidine-4-carboxamide] | > 100 | > 100 | 0.59 | 4.7 | 0.59 | 4.7 |  | fold more potent than regioisomer P10 (Mtb strain H37Rv; o-F versus p-F): > 4 fold; activity against Mtb replication in J774 murine macrophages [1]: active |
| Cn1c(Cc2ccccc2C(F)(F)F)nc(C(=O)NCc2ccccc2)c(O)c1=O [Compound P01, N-Benzyl-5-hydroxy-1-methyl-6-oxo-2-(2-(trifluoromethyl)benzyl)-1,6-dihydropyrimidine-4-carboxamide] | > 100 | > 100 | 0.59 | 4.7 | 0.59 | 4.7 ± 1.5 |  | bactericidal activity against anaerobic nonreplicating Mtb [2]: lacked bactericidal activity; MIC (Mtb strain H37Rv; Mycobacterium tuberculosis, H37RV, Mtb H37Rv, GAST medium (Table 1), read-out: MIC GAST): 0.4 ± 0.2 µM; MIC (Mtb strain H37Rv; Mycobacterium tuberculosis, H37RV, pH 6, read-out: MIC nitrite/butyrate): 12.5 µM; MIC (Mtb strain H37Rv; Mycobacterium tuberculosis, H37RV, read-out: MIC Chol): 1.6 µM; MIC (Mtb strain H37Rv; Mycobacterium tuberculosis, H37RV, read-out: MIC GBSA or DBSA): 3.1 µM; MIC (Mtb strain H37Rv; Mycobacterium tuberculosis, H37RV, read-out: MIC in 7H9/ADC): ~1.9 µg/mL; MIC (Mtb strain H37Rv; Mycobacterium tuberculosis, H37RV, read-out: MIC, DprE1 wild type): 3.13 µM; MIC (Mtb strain H37Rv; read-out: MIC 7H9/ADC): 4.7 µM; reporter-gene assay DNA damage (recA and radA reporters): no induction; activity against Mtb replication in J774 murine macrophages [1]: active; AUC [3]: 1060 ng·h/mL; CL [3]: 9.48; Tmax [3]: 1.0 h; Vd [3]: 33.7 L/kg; Cmax ([3]; suspension): 250 ng/mL; T1/2 ([3]; 10 mg/kg): 4 h and 4.1 h; reporter-gene assay cell wall (iniBAC promoter): positive; logarithmic reduction in colony-forming units (actively replicating Mtb): 1–2 log; MIC CydKO (Mtb cydC::aph strain): 6.2 µM (≈ 2.59 µg/mL) |
| Cn1c(Cc2ccccc2C(F)(F)F)nc(C(=O)NCc2cccnc2)c(O)c1=O [Compound P08, 5-Hydroxy-1-methyl-6-oxo-N-(pyridin-3-ylmethyl)-2-(2-(trifluoromethyl)benzyl)-1,6-dihydropyrimidine-4-carboxamide] | > 100 | > 100 | 4.7 | 18.8 | 4.7 | 18.8 |  |  |
| Cn1c(Cc2ccccc2C(F)(F)F)nc(C(=O)NCc2ccc(F)cc2)c(O)c1=O [Compound P10, N-(4-Fluorobenzyl)-5-hydroxy-1-methyl-6-oxo-2-(2-(trifluoromethyl)benzyl)-1,6-dihydropyrimidine-4-carboxamide] | > 100 | > 100 | 2.3 | 18.8 | 2.3 | 18.8 |  |  |
| CN(Cc1ccccc1)C(=O)c1nc(Cc2ccccc2C(F)(F)F)n(C)c(=O)c1O [Compound P12, N-Benzyl-5-hydroxy-N,1-dimethyl-6-oxo-2-(2-(trifluoromethyl)benzyl)-1,6-dihydropyrimidine-4-carboxamide] | > 100 | > 100 | > 100 | > 100 | > 100 | > 100 | loss of activity |  |
| CCn1c(Cc2ccccc2C(F)(F)F)nc(C(=O)NCc2ccccc2)c(O)c1=O [Compound P04, N-Benzyl-1-ethyl-5-hydroxy-6-oxo-2-(2-(trifluoromethyl)benzyl)-1,6-dihydropyrimidine-4-carboxamide] | > 100 | > 100 | 0.4 | 2.3 | 0.39 | 2.3 |  | MIC (Mtb strain H37Rv; [9]): 0.39 µM; activity against Mtb replication in J774 murine macrophages [1]: active |
| CC(c1ccccc1C(F)(F)F)c1nc(C(=O)NCc2ccccc2)c(O)c(=O)n1C (centres unmarked) [Compound P15, N-Benzyl-5-hydroxy-1-methyl-6-oxo-2-(1-(2-(trifluoromethyl)phenyl)ethyl)-1,6-dihydropyrimidine-4-carboxamide] | > 100 | > 100 | 3.1 | 18.3 | 3.1 | 18.3 |  | fold increase in MIC (reduced potency) compared with P01 (Mtb strain H37Rv): 5 fold |
| Cn1c(Cc2ccccc2C(F)(F)F)nc(C(=O)Nc2ccccc2)c(O)c1=O [Compound P05, 5-Hydroxy-1-methyl-6-oxo-N-phenyl-2-(2-(trifluoromethyl)benzyl)-1,6-dihydropyrimidine-4-carboxamide] | > 100 | > 100 | 1.6 | 18.8 | 1.6 | 18.8 |  | fold increase in MIC (reduced potency) compared with P01 (Mtb strain H37Rv): around 4 fold |
| Cn1c(Cc2ccccc2C(F)(F)F)nc(C(=O)NCc2ccccn2)c(O)c1=O [Compound P07, 5-Hydroxy-1-methyl-6-oxo-N-(pyridin-2-ylmethyl)-2-(2-(trifluoromethyl)benzyl)-1,6-dihydropyrimidine-4-carboxamide] | > 100 | > 100 | 1.2 | 3.1 | 1.2 | 3.1 |  | activity against Mtb replication in J774 murine macrophages [1]: active |
| N-Benzyl-2-ethyl-5-hydroxy-1-methyl-6-oxo-1,6-dihydropyrimidine-4-carboxamide [Compound P03] |  | > 100 |  |  |  |  | complete loss of potency | IC50 (HepG2 cells; [10]): > 100 µM; MIC (Mtb strain H37Rv; [9]): >100 µM; MIC (Mtb strain H37Rv; read-out: MIC 7H9/ADC): >100 µM; MIC (Mtb strain H37Rv; [11]): >100 µM; MIC (Mtb strain H37Rv; [12]): >100 µM |
| Cn1c(Cc2ccccc2)nc(C(=O)NCc2ccccc2)c(O)c1=O [Compound P02, N,2-Dibenzyl-5-hydroxy-1-methyl-6-oxo-1,6-dihydropyrimidine-4-carboxamide] | > 100 | > 100 | 3.1 | 9.4 | 3.1 | 9.4 |  |  |
| O=C(NCc1ccccc1)c1nc(Cc2ccccc2C(F)(F)F)[nH]c(=O)c1O [Compound P14, N-Benzyl-5-hydroxy-6-oxo-2-(2-(trifluoromethyl)benzyl)-1,6-dihydropyrimidine-4-carboxamide] | > 100 | > 100 | > 100 | > 100 | > 100 | > 100 | not tolerated |  |
| Cn1c(Cc2ccccc2C(F)(F)F)nc(C(=O)CCc2ccccc2)c(O)c1=O [Compound P18, 5-Hydroxy-3-methyl-6-(3-phenylpropanoyl)-2-(2-(trifluoromethyl)benzyl)pyrimidin-4(3H)-one] | > 100 | > 100 | 12.5 | 100 | 12.5 | 100 |  |  |
| CC(NC(=O)c1nc(Cc2ccccc2C(F)(F)F)n(C)c(=O)c1O)c1ccccc1 (centres unmarked) [Compound P13, 5-Hydroxy-1-methyl-6-oxo-N-(1-phenylethyl)-2-(2-(trifluoromethyl)benzyl)-1,6-dihydropyrimidine-4-carboxamide] | > 100 | > 100 | > 100 | > 100 | > 100 | > 100 | loss of activity |  |
| N-Benzyl-5-hydroxy-6-methoxy-2-(2-(trifluoromethyl)benzyl)pyrimidine-4-carboxamide [Compound P16] |  | > 100 |  |  |  |  | inactive | IC50 (HepG2 cells; [10]): > 100 µM; MIC (Mtb strain H37Rv; [9]): 37.5 µM; MIC (Mtb strain H37Rv; read-out: MIC 7H9/ADC): >100 µM; MIC (Mtb strain H37Rv; [11]): >100 µM; MIC (Mtb strain H37Rv; [12]): 37.5 µM |
| Cn1c(Cc2ccccc2C(F)(F)F)nc(C(=O)NCC2CCCCC2)c(O)c1=O [Compound P06, N-(Cyclohexylmethyl)-5-hydroxy-1-methyl-6-oxo-2-(2-(trifluoromethyl)benzyl)-1,6-dihydropyrimidine-4-carboxamide] | > 100 | > 100 | 12.5 | > 100 | 12.5 | > 100 |  |  |
| Cn1c(Cc2ccccc2C(F)(F)F)nc(C(=O)NCc2ccc3c(c2)OCO3)c(O)c1=O [Compound P11, N-(Benzo[d][1,3]dioxol-5-ylmethyl)-5-hydroxy-1-methyl-6-oxo-2-(2-(trifluoromethyl)benzyl)-1,6-dihydropyrimidine-4-carboxamide] | > 100 | > 100 | 37.5 | > 100 | 37.5 | > 100 |  |  |
